Marks after values point to notes of the source that are not given here.
Tests used:
Format in all cases: in vivo
[1] = test system: Puccinia recondite f. sp. tritici (the causal agent of wheat leaf rust); assay: Test A: wheat leaf rust, preventive spray on wheat seedlings, visual disease rating; conditions: wheat leaf rust, preventive spray on wheat seedlings; asterisk: 40 ppm test suspension
Summary of the method: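 This was a preventive test: Puccinia recondite f. sp. tritici inoculum was applied one day after compound spray to run-off. Test suspensions were made in 50/50 acetone/water with 250 ppm surfactant, at 200 ppm (800 g/ha equivalent) or 40 ppm. Visual ratings of % disease control relative to controls were made after 24 h of saturated humidity and 7 growth-chamber days, all at 20° C.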

[2] = test system: Septoria tritici (the causal agent of wheat leaf blotch); assay: Test B: wheat leaf blotch, preventive spray on wheat seedlings, visual disease rating; conditions: wheat leaf blotch, preventive spray on wheat seedlings; asterisk: 40 ppm test suspension
Summary of the method: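 Preventive test: Septoria tritici spores applied one day after run-off spraying of seedlings (200 ppm equals 800 g/ha; some tests 40 ppm). After 48 h at 24 °C saturated atmosphere and 19 days at 20 °C, disease scored visually as % control relative to untreated plants.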

[3] = test system: Blumeria graminis f. sp. tritici (also known as Erysiphe graminis f. sp. tritici, the causal agent of wheat powdery mildew); assay: Test D: wheat powdery mildew, preventive spray on wheat seedlings, visual disease rating; conditions: wheat powdery mildew, preventive spray on wheat seedlings; asterisk: 40 ppm test suspension
Summary of the method: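 Preventive test: seedlings sprayed to run-off and inoculated with powdery mildew spores one day later. Suspensions were made in 50/50 acetone/water with 250 ppm Trem 014 surfactant (200 ppm equals 800 g/ha). Visual ratings after 8 days at 20 °C give percent disease control versus controls.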

[4] = test system: Botrytis cinerea (the causal agent of tomato Botrytis); assay: Test C: tomato Botrytis, preventive spray on tomato seedlings, visual disease rating; conditions: tomato Botrytis, preventive spray on tomato seedlings; asterisk: 40 ppm test suspension
Summary of the method: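 Preventive test: B. cinerea spore inoculation one day after tomato seedlings were sprayed to run-off with compound suspended in 50/50 acetone–water plus 250 ppm surfactant. Plants held 48 h at 20° C in saturated air, then 3 days at 24° C; visual ratings scored 100 (full control) to 0 versus controls; some entries used 40 ppm.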

Structure (SMILES)	Test A rating (100 = 100% disease control, 0 = no disease control relative to the controls) [1]	Test B rating (100 = 100% disease control, 0 = no disease control relative to the controls) [2]	Test D rating (100 = 100% disease control, 0 = no disease control relative to the controls) [3]	Test C rating (100 = 100% disease control, 0 = no disease control relative to the controls) [4]
COc1ccc(C(O)c2c(Br)nc(C)n2-c2ccc(F)cc2Br)c(F)c1 (stereo not shown) [compound 310]	100* %	100* %	56* %	100* %
Cc1ncc(C(O)c2ccc(C#N)cc2F)n1-c1ccc(F)cc1Br (stereo not shown) [compound 311]	9* %	5* %	0* %	0* %
COc1ccc(C(O)c2cnc(C)n2-c2ccc(F)cc2Br)c(Cl)c1 (stereo not shown) [compound 312]	28* %	12* %	0* %	0* %
Cc1nc(Cl)c(C(O)c2ccc(F)cc2Br)n1-c1ccc(F)cc1F (stereo not shown) [compound 313]	100* %	100* %	0* %	17* %
COc1ccc(C(O)c2c(Cl)nc(C)n2-c2ccc(F)cc2Br)c(F)c1 (stereo not shown) [compound 314]	100* %	100* %	47* %	99* %
Cc1cc(F)ccc1C(O)c1c(Cl)nc(C)n1-c1c(F)cc(F)cc1Br (stereo not shown) [compound 315]	99* %	100* %	96* %	96* %
Cc1nc(Cl)c(C(O)c2ccc(F)cc2F)n1-c1c(F)cccc1Br (stereo not shown) [compound 316]	100* %	100* %	95* %	99* %
Cc1cccc(Cl)c1-n1c(C)nc(Br)c1C(O)c1ccc(F)cc1F (stereo not shown) [compound 317]	100* %	89* %	56* %	96* %
COc1ccc(-n2c(Cl)nc(Cl)c2C(O)c2ccc(F)cc2Cl)c(F)c1 (stereo not shown) [compound 319]	100* %	100* %	0* %	99* %
Cc1cccc(Cl)c1-n1c(C)nc(Cl)c1C(O)c1ccc(F)cc1F (stereo not shown) [compound 320]	99* %	100* %	79* %	96* %
Cc1ncc(C(O)c2ccc(F)cc2F)n1-c1ccc(F)cc1Br (stereo not shown) [compound 321]	0* %	0* %	0* %	0* %
COc1cc(F)c(C(O)c2cnc(C)n2-c2ccc(F)cc2Br)c(F)c1 (stereo not shown) [compound 322]	28* %	2* %	0* %	0* %
COc1cc(F)c(C(O)c2c(Br)nc(C)n2-c2ccc(F)cc2Br)c(F)c1 (stereo not shown) [compound 323]	100* %	100* %	99* %	100* %
COc1ccc(C(O)c2c(Br)nc(C)n2-c2ccc(F)cc2Br)c(Cl)c1 (stereo not shown) [compound 324]	100* %	94* %	69* %	80* %
COc1cc(F)c(C(O)c2c(Cl)nc(C)n2-c2ccc(F)cc2Br)c(F)c1 (stereo not shown) [compound 325]	100* %	98* %	92* %	100* %
Cc1nc(Br)c(C(O)c2ccc(C#N)cc2F)n1-c1ccc(F)cc1Br (stereo not shown) [compound 326]	99* %	90* %	0* %	30* %
COc1ccc(-n2c(Cl)nc(Cl)c2C(O)c2c(F)cc(F)cc2F)c(F)c1 (stereo not shown) [compound 327]	100* %	100* %	29* %	100* %
COc1ccc(-n2c(Cl)nc(Cl)c2C(O)c2ccc(F)cc2F)c(F)c1 (stereo not shown) [compound 328]	100* %	100* %	64* %	100* %
Cc1nc(Cl)n(-c2c(F)cccc2Cl)c1C(O)c1ccc(F)cc1F (stereo not shown) [compound 332]	100* %	100* %	92* %	99* %
COc1ccc(C(O)c2c(Cl)nc(C)n2-c2ccc(F)cc2Br)c(Cl)c1 (stereo not shown) [compound 333]	95* %	72* %	86* %	99* %
Cc1nc(Br)c(C(O)c2ccc(F)cc2F)n1-c1ccc(F)cc1Br (stereo not shown) [compound 334]	99* %	100* %	64* %	99* %
Cc1cccc(Br)c1-n1c(C)nc(Br)c1C(O)c1ccc(F)cc1Cl (stereo not shown) [compound 335]	98* %	86* %	64* %	35* %
Cc1cccc(Br)c1-n1c(C)nc(Cl)c1C(O)c1ccc(F)cc1Cl (stereo not shown) [compound 336]	97* %	89* %	90* %	72* %
Cc1cccc(Br)c1-n1c(C)nc(Br)c1C(O)c1ccc(F)cc1F (stereo not shown) [compound 337]	86* %	86* %	0* %	71* %
Cc1cccc(Br)c1-n1c(C)nc(Cl)c1C(O)c1ccc(F)cc1F (stereo not shown) [compound 338]	94* %	93* %	56* %	70* %

Reference: US20130143929A1, “FUNGICIDAL IMIDAZOLES” (EI DU PONT DE NEMOURS AND COMPANY, priority 2010, published 2013)
